Key:
[1] = test system: muscle progenitors (hMP) from DMD hiPSC or WT hiPSC; assay: Myotube assay: myogenic activity (total myotube area per well); assay type: cell-based, human; settings: for Emax: read-out: MA (normalized Myotube Area, efficacy)
Procedure: An in vitro assay for assessing the efficacy of compounds for use in treating, ameliorating, delaying, curing and/or preventing a disease or condition associated with muscle cells and/or satellite cells is described in example 78. Herein, the generation of myotubes and satellite cells after adding a compound to a myotube assay workflow is assessed. Said myotube assay workflow is derived from wild-type or DMD human induced pluripotent stem cells (WT hiPSC or DMD hiPSC). Before the addition of said compound, the assay comprises satellite-like cells, but no significant amount of myotubes.
(§1) The efficacy of said compound for use in treating, ameliorating, delaying, curing and/or preventing a disease or condition associated with muscle cells and/or satellite cells is positively correlated with the generation of myotubes (i.e. the increase of the area occupied by myotubes on the assay) and/or satellite cells (i.e. the increase of the number of satellite cells) in the assay after adding said compound. The generation of myotubes by the addition of said compound is expressed as the EC50 value, the concentration of said compound that corresponds with the half-maximal generation of myotubes, and the MA (normalized myotube area) value, the normalized area occupied by generated myotubes on the assay. […] Since muscle cells are formed from myotubes during myogenesis, the generation of myotubes in the assay is a good indicator of the ability of said compound to induce the formation of functional muscle cells in vivo. The number of satellite cells is measured as the percentage of Pax7 positive cells, relative to the total number of cells in the assay, as shown in FIG. 3. The percentage of Pax7 is a good indicator of the ability of said compound to induce the formation of satellite cells which are able to play a role in muscle repair and regeneration in vivo.
(§2) DMD human induced pluripotent stem cells (hereafter “DMD hiPSC”), generated from the NORM-1 hiPSC WT cell line by gene editing, or WT human induced pluripotent stem cells (hereafter “WT hiPSC”), being NORM-1 hiPSC wt cell line, have been differentiated according to Chal et al. 2015, 2016, to produce muscle progenitors (hereafter “hMP”). The hMP population contains satellite-like cells (i.e Pax7-positive cells) and satellite cells' progenies (i.e. Myogenin-positive cells).
(§3) FIG. 1 provides an example of a Myotube assay workflow. At day 0, hMP are thawed and 3.1 million cells are plated into a T75-flask coated with hESC-qualified Matrigel™ (Corning) in SkGM proliferating medium (PromoCells), supplemented with 5 μM Y-27632 (Tocris Bioscience). On day 2, SkGM proliferating medium is refreshed. On day 4, hMP are harvested and transferred into a 384-well plate coated with collagen type I at a density of 3500 cells/well in a DMEM-based medium, containing 5% of knockout serum replacement (Gibco), 1% PenStrep (Gibco), 1% MEM NEAA (Gibco) and 0.1 mM 2-mercaptoethanol (Gibco) (hereafter “K5 medium”) and 5 μM Y-27632. Compounds to be tested are then added in the medium and incubated for 3 days at 37° C. On day 7, cells are fixed and immunostained. For example, myotubes (alpha-actinin staining) and satellite-like (Pax7 staining) cells can be analyzed for total myotube area per well or Pax7-positive cell quantification.
(§4) DMD hMP were put in the Myotube assay according to the workflow described in Example 2.1. In particular, compound (i) was added at concentrations ranging from 1.5 nM to 30 μM, starting from day 4. hMP were cultivated for three more days in presence of compound (i), then fixed and analyzed for quantification of total myotube area per well. Duplicates of each condition were averaged.
Qualitative scale: ++++: EC50<500 nM; +++: 500 nM≤EC50<1000 nM; ++: 1000 nM≤EC50<5000 nM; +: EC50≥5000 nM; +++: MA≥75%; ++: 50%≤MA<75%; +: 25%≤MA<50%.

[2] = test system: satellite-like cells (Pax7-positive cells) in hMP; assay: Myotube assay: Pax7-positive (satellite-like) cell quantification; assay type: cell-based, human; design: key to Pax7% (pool of Pax7-positive cells) / Pax7: −: Depletes the pool of cells, while positively affects the myotubes; +: Maintains or increases the pool of cells, with at least 1 of the highest concentration known to be cytotoxic; ++: Maintains or increases the pool of cells, without any toxicity; settings: for Pax7% (pool of Pax7-positive cells): myotube assay, compounds incubated 3 days
Description: as §1, §2, §3
as §4, with “percentage” for “quantification”, “Pax7-positive cells and nuclei number.” for “total myotube area per well.”
(−): Depletes the pool of cells, while positively affects the myotubes; (+): Maintains or increases the pool of cells, with at least 1 of the highest concentration known to be cytotoxic; and (++) Maintains or increases the pool of cells, without any toxicity.

[3] = Homo sapiens, 72 h, myotube assay, compounds incubated 3 days

Compound	Emax [1, 3]	Pax7% (pool of Pax7-positive cells) [2]	total myotube surface/well (myogenic activity) ([1]; DMD hMP, 10 concentrations 1.5 nM to 30 μM, 3 days, FIG. 2)	percentage of Pax7-positive cells ([2]; DMD hMP, 10 concentrations 1.5 nM to 30 μM, 3 days, FIG. 3)	EC50 ([1]; Homo sapiens, 72 h, myotube assay, 10 points dose-response 1.5 nM to 30 μM, compounds incubated 3 days, read-out: EC50 (myogenic activity, half-maximal generation of myotubes))
CC(C)(C)c1cc(NC(=O)Nc2ccc(Oc3ccnc4[nH]c(=O)cnc34)cc2F)n(Cc2ccccc2)n1 [(j), 1-(1-benzyl-3-(tert-butyl)-1H-pyrazol-5-yl)-3-(2-fluoro-4-((3-oxo-3,4-dihydropyrido[2,3-b]pyrazin-8-yl)oxy)phenyl)urea]	50 to 75%	++			
CC(C)n1nc(C(C)(C)C)cc1NC(=O)Nc1ccc(Oc2ccnc3[nH]c(=O)cnc23)cc1F [(i), 1-(3-(tert-butyl)-1-isopropyl-1H-pyrazol-5-yl)-3-(2-fluoro-4-((3-oxo-3,4-dihydropyrido[2,3-b]pyrazin-8-yl)oxy)phenyl)urea]	50 to 75%	+	dose-dependent increase	dose-dependent increase	
CSc1cc(Oc2ccnc3[nH]c(=O)cnc23)ccc1NC(=O)Nc1cc(C(C)(C)C)nn1-c1ccc(C)c(C)c1 [(cd), 1-(3-(tert-butyl)-1-(3,4-dimethylphenyl)-1H-pyrazol-5-yl)-3-(2-(methylthio)-4-((3-oxo-3,4-dihydropyrido[2,3-b]pyrazin-8-yl)oxy)phenyl)urea]	≥ 75%	++			
CNC(=O)c1cc(Oc2ccc(NC(=O)Nc3cc(C(C)(C)C)nn3-c3ccc4ncccc4c3)c(SC)c2)ccn1 [(ag), 4-(4-(3-(3-(tert-butyl)-1-(quinolin-6-yl)-1H-pyrazol-5-yl)ureido)-3-(methylthio)phenoxy)-N-methylpicolinamide]	≥ 75%	++			
CSc1cc(Oc2ccnc3[nH]c(=O)cnc23)ccc1NC(=O)Nc1cc(C(C)(C)C)nn1-c1ccc(F)c(Cl)c1 [(cm), 1-(3-(tert-butyl)-1-(3-chloro-4-fluorophenyl)-1H-pyrazol-5-yl)-3-(2-(methylthio)-4-((3-oxo-3,4-dihydropyrido[2,3-b]pyrazin-8-yl)oxy)phenyl)urea]	≥ 75%	+			
CSc1cc(Oc2ccnc3[nH]c(=O)cnc23)ccc1NC(=O)Nc1cc(C(C)(C)C)nn1-c1ccc(OCCCN(C)C)cc1 [(cr), 1-(3-(tert-butyl)-1-(4-(3-(dimethylamino)propoxy)phenyl)-1H-pyrazol-5-yl)-3-(2-(methylthio)-4-((3-oxo-3,4-dihydropyrido[2,3-b]pyrazin-8-yl)oxy)phenyl)urea]	≥ 75%	+			
CC(C)(C)c1nnc(NC(=O)Nc2ccc(Oc3ccnc4[nH]c(=O)cnc34)cc2F)s1 [(r), 1-(5-(tert-butyl)-1,3,4-thiadiazol-2-yl)-3-(2-fluoro-4-((3-oxo-3,4-dihydropyrido[2,3-b]pyrazin-8-yl)oxy)phenyl)urea]	≥ 75%	++			
CNC(=O)c1cc(Oc2ccc(NC(=O)Nc3cc(C(C)(C)C)nn3-c3ccccc3)c(SC)c2)ccn1 [(br), 4-(4-(3-(3-(tert-butyl)-1-phenyl-1H-pyrazol-5-yl)ureido)-3-(methylthio)phenoxy)-N-methylpicolinamide]	≥ 75%	++			
CC(C)c1cc(Oc2ccnc3[nH]c(=O)cnc23)ccc1NC(=O)Nc1cc(C(C)(C)C)nn1-c1ccccc1 [(bk), 1-(3-(tert-butyl)-1-phenyl-1H-pyrazol-5-yl)-3-(2-isopropyl-4-((3-oxo-3,4-dihydropyrido[2,3-b]pyrazin-8-yl)oxy)phenyl)urea]	≥ 75%	++			
CSc1cc(Oc2cccc3[nH]c(=O)cnc23)ccc1NC(=O)Nc1cc(C(C)(C)C)nn1-c1ccccc1 [(bu), 1-(3-(tert-butyl)-1-phenyl-1H-pyrazol-5-yl)-3-(2-(methylthio)-4-((2-oxo-1,2-dihydroquinoxalin-5-yl)oxy)phenyl)urea]	25 to 50%	++			
COc1cc(Oc2ccnc3[nH]c(=O)cnc23)ccc1NC(=O)Nc1cc(C(C)(C)C)nn1-c1ccccc1 [(bc), 1-(3-(tert-butyl)-1-phenyl-1H-pyrazol-5-yl)-3-(2-methoxy-4-((3-oxo-3,4-dihydropyrido[2,3-b]pyrazin-8-yl)oxy)phenyl)urea]	≥ 75%	++			1000 to 5000 nM
CC(C)(C)c1cc(NC(=O)Nc2ccc(Oc3ccnc4[nH]c(=O)cnc34)cc2)n(-c2ccccc2)n1 [(s), 1-(3-(tert-butyl)-1-phenyl-1H-pyrazol-5-yl)-3-(4-((3-oxo-3,4-dihydropyrido[2,3-b]pyrazin-8-yl)oxy)phenyl)urea]	50 to 75%	+			
CSc1cc(Oc2ccnc3[nH]c(=O)ccc23)ccc1NC(=O)Nc1cc(C(C)(C)C)nn1-c1ccccc1 [(do), 1-(3-(tert-butyl)-1-phenyl-1H-pyrazol-5-yl)-3-(2-(methylthio)-4-((7-oxo-7,8-dihydro-1,8-naphthyridin-4-yl)oxy)phenyl)urea]	≥ 75%	+			
CSc1cc(Oc2ccnc3[nH]c(=O)cnc23)ccc1NC(=O)Nc1nc(-c2ccc(F)c(F)c2)cs1 [(ax), 1-(4-(3,4-difluorophenyl)thiazol-2-yl)-3-(2-(methylthio)-4-((3-oxo-3,4-dihydropyrido[2,3-b]pyrazin-8-yl)oxy)phenyl)urea]	50 to 75%	++			
CSc1cc(Oc2ccnc3[nH]c(=O)cnc23)ccc1NC(=O)Nc1cc(C(C)(C)C)nn1-c1ccc2ncccc2c1 [(bm), 1-(3-(tert-butyl)-1-(quinolin-6-yl)-1H-pyrazol-5-yl)-3-(2-(methylthio)-4-((3-oxo-3,4-dihydropyrido[2,3-b]pyrazin-8-yl)oxy)phenyl)urea]	≥ 75%	+			
CC(=O)Nc1cc(Oc2ccc(NC(=O)Nc3cc(C(C)(C)C)nn3-c3ccccc3)c(F)c2)ccn1 [(ae), N-(4-(4-(3-(3-(tert-butyl)-1-phenyl-1H-pyrazol-5-yl)ureido)-3-fluorophenoxy)pyridin-2-yl)acetamide]	50 to 75%	+			
CSc1cc(Oc2ccnc3[nH]c(=O)cnc23)ccc1NC(=O)Nc1cc(C(C)(C)C)nn1CCCN1CCOCC1 [(bh), 1-(3-(tert-butyl)-1-(3-morpholinopropyl)-1H-pyrazol-5-yl)-3-(2-(methylthio)-4-((3-oxo-3,4-dihydropyrido[2,3-b]pyrazin-8-yl)oxy)phenyl)urea]	≥ 75%	++			
Cc1cc(Oc2ccnc3[nH]c(=O)cnc23)ccc1NC(=O)Nc1cc(C(C)(C)C)nn1-c1ccccc1 [(al), 1-(3-(tert-butyl)-1-phenyl-1H-pyrazol-5-yl)-3-(2-methyl-4-((3-oxo-3,4-dihydropyrido[2,3-b]pyrazin-8-yl)oxy)phenyl)urea]	≥ 75%	++			

Reference: patent publication US20230089368A1, “POLYAROMATIC UREA DERIVATIVES AND THEIR USE IN THE TREATMENT OF MUSCLE DISEASES” (ANAGENESIS BIOTECHNOLOGIES S.A.S., priority 2019, published 2023)
